This is an account of results in US9834513B2, “Benzylamine derivatives” (KALVISTA PHARMACEUTICALS LIMITED, priority 2013, dated 2017).

In one data set the target is trypsin (Homo sapiens, UniProt P07477). As to the kind of experiment: Determination of enzyme selectivity: trypsin. Particulars: substrate at Km concentration. In kind it is biochemical. Here is the method:
Human serine protease enzymes plasmin, thrombin, trypsin, Factor Xa and Factor XIIa were assayed for enzymatic activity using an appropriate fluorogenic substrate. Protease activity was measured by monitoring the accumulation of liberated fluorescence from the substrate over 5 minutes. The linear rate of fluorescence increase per minute was expressed as percentage (%) activity. The Km for the cleavage of each substrate was determined by standard transformation of the Michaelis-Menten equation.

The target of another data set is Human plasma kallikrein (Homo sapiens (Human), UniProt P03952). As to the kind of experiment: Determination of the IC50 for plasma kallikrein. Particulars: 37° C., fluorogenic substrate H-DPro-Phe-Arg-AFC; read-out: IC50 (human PKal). In kind it is biochemical. Here is the method: Human plasma kallikrein (Protogen) was incubated at 37° C. with the fluorogenic substrate H-DPro-Phe-Arg-AFC and various concentrations of the test compound. Residual enzyme activity (initial rate of reaction) was determined by measuring the change in optical absorbance at 410 nm and the IC50 value for the test compound was determined.

Another data set has as its target Human KLK1 (Homo sapiens (Human), UniProt P06870). Kind of data set: Determination of the IC50 for KLK1. In kind it is biochemical. Particulars: 37° C., fluorogenic substrate H-DVal-Leu-Arg-AFC. As for the experimental part: KLK1 inhibitory activity in vitro was determined using standard published methods (see e.g. Johansen et al., Int. J. Tiss. Reac. 1986, 8, 185; Shori et al., Biochem. Pharmacol., 1992, 43, 1209; Stürzebecher et al., Biol. Chem. Hoppe-Seyler, 1992, 373, 1025). Human KLK1 (Callbiochem) was incubated at 37° C. with the fluorogenic substrate H-DVal-Leu-Arg-AFC and various concentrations of the test compound. Residual enzyme activity (initial rate of reaction) was determined by measuring the change in optical absorbance at 410 nm and the IC50 value for the test compound was determined.

In another data set the test system is diabetic rats. Particulars: cited from earlier work.

Molecules are shown by their SMILES. pIC50: −log10 of the molar value. Bounds are passed on as bounds.

For orientation: pIC50 means the IC50 on a negative log10 scale, so that one unit is a factor of ten.

Sequence of Human KLK1 (P06870 25-262): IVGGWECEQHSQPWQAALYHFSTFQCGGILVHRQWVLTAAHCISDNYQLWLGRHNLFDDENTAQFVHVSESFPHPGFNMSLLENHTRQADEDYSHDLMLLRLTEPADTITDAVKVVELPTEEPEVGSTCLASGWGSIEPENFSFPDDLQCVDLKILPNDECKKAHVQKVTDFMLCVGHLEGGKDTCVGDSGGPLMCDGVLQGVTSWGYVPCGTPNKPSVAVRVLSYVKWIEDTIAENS
Sequence of Human plasma kallikrein (P03952 391-638): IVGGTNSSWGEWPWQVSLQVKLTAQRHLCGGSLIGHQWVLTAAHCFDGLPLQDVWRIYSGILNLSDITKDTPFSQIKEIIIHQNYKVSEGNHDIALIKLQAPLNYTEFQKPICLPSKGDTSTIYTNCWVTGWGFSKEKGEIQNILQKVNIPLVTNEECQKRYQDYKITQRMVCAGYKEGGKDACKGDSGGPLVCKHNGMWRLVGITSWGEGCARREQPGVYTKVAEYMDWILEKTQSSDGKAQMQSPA
Sequence of Human plasma kallikrein (P03952 20-390 partner): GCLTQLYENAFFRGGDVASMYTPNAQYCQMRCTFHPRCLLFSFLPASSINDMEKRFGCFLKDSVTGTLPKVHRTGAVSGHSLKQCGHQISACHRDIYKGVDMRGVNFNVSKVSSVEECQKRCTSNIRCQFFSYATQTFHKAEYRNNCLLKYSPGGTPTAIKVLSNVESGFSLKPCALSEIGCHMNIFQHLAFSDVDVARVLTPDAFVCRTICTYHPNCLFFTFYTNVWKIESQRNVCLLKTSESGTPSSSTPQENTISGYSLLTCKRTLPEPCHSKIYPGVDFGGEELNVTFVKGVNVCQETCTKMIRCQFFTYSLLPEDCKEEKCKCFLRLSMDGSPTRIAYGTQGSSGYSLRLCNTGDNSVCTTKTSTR

In turn, `NCc1ccc(CNC(=O)c2cn(Cc3csc(-c4ccccc4)n3)nc2C(F)(F)F)cc1` [Example 83, 1-(2-Phenyl-thiazol-4-ylmethyl)-3-trifluoromethyl-1H-pyrazole-4-carboxylic acid 4-aminomethyl-benzylamide] showed a pIC50 at trypsin of 4.58. With `Cc1cc(C(=O)NCc2ccc(CN)cc2)c(C)n1Cc1csc(-c2ccoc2)n1` [Example 39, 2,5-Dimethyl-1-(2-furan-3-yl-thiazol-4-ylmethyl)-1H-pyrrole-3-carboxylic acid 4-aminomethyl-benzylamide], the pIC50 at Human plasma kallikrein is 5.96; on Human KLK1 it was below 5.00. Turning to `Cc1cc(C(=O)NCc2ccc(CN)cc2)c(C)n1Cc1csc(-c2ccccc2)n1` [Example 1, 2,5-Dimethyl-1-(2-phenyl-thiazol-4-ylmethyl)-1H-pyrrole-3-carboxylic acid 4-aminomethyl-benzylamide], on trypsin, the pIC50 is below 4.40.

On trypsin, `Cc1cc(CN)ccc1CNC(=O)c1cc(C)n(Cc2csc(-c3ccccc3)n2)c1C` [Example 2, 2,5-Dimethyl-1-(2-phenyl-thiazol-4-ylmethyl)-1H-pyrrole-3-carboxylic acid 4-aminomethyl-2-methyl-benzylamide] had a pIC50 below 4.40.

For `N=C(N)c1ccc(CNC(=O)c2cnn(Cc3ccccc3)c2)cc1` [ASP-440], the “retinal vascular permeability and retinal blood flow abnormalities” value in the data set with diabetic rats is “ameliorated”. As for `NCc1ccc(CNC(=O)c2cn(Cc3ccccc3)nc2-c2ccccc2)cc1` [Example 84, 1-Benzyl-3-phenyl-1H-pyrazole-4-carboxylic acid 4-aminomethyl-benzylamide], on trypsin, the pIC50 is below 4.40. `Cc1cc(C(=O)NCc2ccc(CN)cc2)c(C)n1Cc1ccc(-c2ccncc2)s1` [Example 21, 2,5-Dimethyl-1-(5-pyridin-4-yl-thiophen-2-ylmethyl)-1H-pyrrole-3-carboxylic acid 4-aminomethyl-benzylamide]: the figures for the pIC50 at Human plasma kallikrein and against Human KLK1 were 5.34 and 5.12, respectively. The like results for `Cc1cc(C(=O)NCc2ccc(CN)cc2)c(C)n1Cc1cc(-c2ccccc2)cs1` [Example 9, 2,5-Dimethyl-1-(4-phenyl-thiophen-2-ylmethyl)-1H-pyrrole-3-carboxylic acid 4-aminomethyl-benzylamide] were, in that order, 6.27 and below 5.00.
